Laboratory results from patent EP0326196A2, “Aqueous pharmaceutical preparation” (AKZO N.V., priority 1988, dated 1989).
≈ marks a conversion by molar mass, not a printed value. Where two headings read alike, the source gives them in different places.

What was measured:
[1] = Intra ocular pressure on application to the eyes; assay type: in vivo; conditions: applied to the eyes; contrary to other corticosteroids
[2] = Solubility study of the Steroid in water / aqueous cyclodextrin solutions (phase-solubility, UV/VIS); assay type: physicochemical
Description: The solubility studies were performed according to the method described below which is well known in the litrature. Excess amounts of the Steroid were added to aqueous solutions of 2,6-dimethyl-β-cyclodextrin. These suspensions were shaken at room temperature during 5 days followed by an equilibration period of 3 days at room temperature. Then an aliquot was centrifuged and the supernatant was filtered through a 0,45 µm membrane filter (Millipore: HV4, Millex). The samples were analysed with the Perkin Elmer Lambda 5 UV/VIS spectrophotometer. The absorbance was read and compared with a blanc and standard calibration curve. […] After calculation of the amount of Steroid dissolved, a phase-solubility diagram was constructed by plotting the dissolved amounts of Steroid as a function of the concentration of 2,6-dimethyl-β-cyclodextrin (see Graph).
For comparative purposes the unexpected increase of solubility of the Steroid in water using 2,6-dimethyl-β-cyclodextrin, is compared with other more common cyclodextrins.

[3] = Systemic effect after local administration; assay type: in vivo; conditions: administered locally

For `CCC(=O)[C@@]1(C)[C@H](C)C[C@H]2[C@@H]3CCC4=CC(=O)C=C[C@]4(C)[C@H]3[C@@H](O)C[C@@]21C` [Org 6216, 11β-hydroxy-16α,17α,21-trimethyl-▲¹ʼ⁴-pregnadiene-3,20-dione], the “increase of the intra ocular pressure (I.O.P.)” value [1] was “did not increase I.O.P”, the “increase of the solubility (factor)” value [2] was 10.000 and the solubility ([2]; water with 2,6-dimethyl-β-cyclodextrin, in water with 2,6-dimethyl-β-cyclodextrin, room temperature, read-out: Solubility) was 9000 µg/mL (≈ 24300 µM). The solubility ([2]; water with α-cyclodextrin, in water with α-cyclodextrin, room temperature, read-out: Solubility) was 40 µg/mL (≈ 108 µM), the solubility ([2]; water with β-cyclodextrin, in water with β-cylodextrin, room temperature, read-out: Solubility) was 50 µg/mL (≈ 135 µM) and the solubility ([2]; water with τ-cyclodextrin, in water with τ-cyclodextrin, room temperature, read-out: Solubility) was 70 µg/mL (≈ 189 µM). It also gave a solubility ([2]; water, 2,6-dimethyl-beta-cyclodextrin, 2,6-dimethyl-β-cyclodextrin as solubilizing agent, about 0,28 millimol per ml, read-out: maximal solubility of the Steroid in water) of 9000 to 10000 µg/mL (≈ 24300 to 27000 µM), a solubility ([2]; water, 2,6-dimethyl-beta-cyclodextrin, inclusion complex with 2,6-dimethyl-β-cyclodextrin, read-out: solubility of the Steroid in water) of ~10000 µg/mL (≈ 27000 µM) and a solubility ([2]; water, no cyclodextrin, read-out: Solubility without cyclodextrin) of 0.7 µg/mL (≈ 1.89 µM). For the same molecule, the solubility ([2]; water, no cyclodextrin, read-out: original solubility in water) was 0.5 µg/mL (≈ 1.35 µM) and the systemic effect [3] was “did not expose any significant systemic effect”.
